Test results published in the SangsterLogP compilation.

Test: method code SF, from Rulke, H.; Friedel, A.; Martin, E.; Kottke, K.; Grafe, I.; Kuhmstedt, H. (1991). Investigations on the acidity ond partition properties of 1-phenyl-5-mercaptotetrazoles. Pharmazie, 46(6)456-457.

logP	Compound
2.39	S=c1[nH]nnn1-c1cccc(Br)c1
2.63	S=c1[nH]nnn1-c1ccc2ccccc2c1
2.09	S=c1[nH]nnn1-c1ccc(Cl)cc1
2.29	Cc1cccc(-n2nn[nH]c2=S)c1
2.34	S=c1[nH]nnn1-c1cccc(Cl)c1
3.14	S=c1[nH]nnn1-c1ccccc1I
2.89	S=c1[nH]nnn1-c1ccc(Cl)cc1Cl
2.41	S=c1[nH]nnn1-c1cccc(Cl)c1Cl
1.99	O=[N+]([O-])c1ccc(-n2nn[nH]c2=S)cc1
2.68	S=c1[nH]nnn1-c1ccc(Cl)c(Cl)c1
2.54	S=c1[nH]nnn1-c1ccc(Br)cc1
